{
  "source": "patent US4199499A",
  "about": "“Pharmacologically active peptides” (Eli Lilly and Company, priority 1978, dated 1980)",
  "tested_on": "mouse",
  "experiment": "mouse hot plate test",
  "assay_type": "in vivo",
  "conditions": "15 minutes after administration, hot plate 52° C.",
  "description": "The compounds of this invention are useful as analgesics. […] In this test, a mouse is placed inside an upright acrylic cylinder comprising, as its base, a hot plate surface which is maintained at 52° C. The mouse is given, by subcutaneous injection, a predetermined amount of test compound dissolved or suspended in a suitable carrier, and, 15 minutes after administration of the test compound, the mouse is placed on the hot plate surface. The latencies in seconds until the occurrence of each of two separate phenomena then are recorded. First the latency until the mouse licks its hind paw is measured, and, secondly, the latency until the mouse jumps from the hot plate surface is measured. […] This must occur in a dose range which produces no motor incoordination or incapacitation. The following Table records the results obtained from this test, reflected in terms of increase over saline control. Each data point was determined using ten treated and ten control mice, and each represents the difference in mean response latency between treated and control animals. The mean control latency for the hind paw lick response was 28.4±0.9 seconds determined from eight groups of ten control mice each. The mean control jump latency was 52.4±3.7 seconds for studies run in the a.m. and 75.9±6.0 seconds for studies run in the p.m. as determined from four groups of ten mice each in the a.m. and four groups of ten mice each in the p.m.",
  "data": [
    {"smiles": "CSCCC(C)(CO)NC(=O)[C@H](Cc1ccccc1)NC(=O)CNC(=O)[C@@H](C)NC(=O)[C@@H](N)Cc1ccc(O)cc1", "note": "(stereo partly drawn) [C, L-Tyrosyl-D-alanyl-glycyl-L-phenylalanyl-D,L-α-methylmethionine carbinol]", "values": [
      {"measurement": "Latency, Increase in Seconds over Control, escape jump (EJ)", "setting": "dose 0.1 mg/kg subcutaneous", "value": 16.4, "unit": "s"},
      {"measurement": "Latency, Increase in Seconds over Control, hind paw lick (HPL)", "setting": "dose 0.1 mg/kg subcutaneous", "value": -2.6, "unit": "s"},
      {"measurement": "Latency, Increase in Seconds over Control, escape jump (EJ)", "setting": "dose 0.3 mg/kg subcutaneous", "value": 47.7, "unit": "s"},
      {"measurement": "Latency, Increase in Seconds over Control, hind paw lick (HPL)", "setting": "dose 0.3 mg/kg subcutaneous", "value": 1.7, "unit": "s"},
      {"measurement": "Latency, Increase in Seconds over Control, escape jump (EJ)", "setting": "dose 1 mg/kg subcutaneous", "value": 55.2, "unit": "s"},
      {"measurement": "Latency, Increase in Seconds over Control, hind paw lick (HPL)", "setting": "dose 1 mg/kg subcutaneous", "value": 8.3, "unit": "s"},
      {"measurement": "Latency, Increase in Seconds over Control, escape jump (EJ)", "setting": "dose 3 mg/kg subcutaneous", "value": 74.9, "unit": "s"},
      {"measurement": "Latency, Increase in Seconds over Control, hind paw lick (HPL)", "setting": "dose 3 mg/kg subcutaneous", "value": 11.2, "unit": "s"},
      {"measurement": "Latency, Increase in Seconds over Control, escape jump (EJ)", "setting": "dose 10 mg/kg subcutaneous", "value": 90.7, "unit": "s"},
      {"measurement": "Latency, Increase in Seconds over Control, hind paw lick (HPL)", "setting": "dose 10 mg/kg subcutaneous", "value": 18.8, "unit": "s"},
      {"measurement": "Latency, Increase in Seconds over Control, escape jump (EJ)", "setting": "dose 30 mg/kg subcutaneous", "value": 93.8, "unit": "s"},
      {"measurement": "Latency, Increase in Seconds over Control, hind paw lick (HPL)", "setting": "dose 30 mg/kg subcutaneous", "value": 10.6, "unit": "s"}
    ]}
  ]
}
